From US20190315731A1, “6-(BUTA-1,3-DIYN-1-YL)BENZO[D]THIAZOLE DERIVATIVES” (Idorsia Pharmaceuticals Ltd., priority 2016, published 2019)
In brackets after ≈: the same amount, converted by molar mass.

Assays:
Format in all cases: cell-based
K. pneumoniae A-651 = assay: Bacterial growth minimal inhibitory concentration, K. pneumoniae A-651; conditions: cation-adjusted Mueller-Hinton Broth, microdilution; for MIC: Klebsiella pneumoniae, A651, multiply-resistant (in particular quinolone-resistant) strain; for MIC for K. Pneumoniae A-651: multiply-resistant (in particular quinolone-resistant) strain
Experimental: (§1) Minimal Inhibitory Concentrations (MICs; mg/L) were determined in cation-adjusted Mueller-Hinton Broth by a microdilution method following the description given in “Methods for Dilution Antimicrobial Susceptibility Tests for Bacteria that Grow Aerobically”, Approved standard, 7th ed., Clinical and Laboratory Standards Institute (CLSI) Document M7-A7, Wayne, Pa., USA (2006).
(§2) All Example compounds were tested against several Gram-positive and Gram-negative bacteria. […] K. pneumoniae A-651 is a multiply-resistant (in particular quinolone-resistant) strain, while E. coli ATCC25922 and P. aeruginosa ATCC27853 are quinolone-sensitive strains.

P. aeruginosa ATCC27853 = assay: Bacterial growth minimal inhibitory concentration, P. aeruginosa ATCC27853; conditions: quinolone-sensitive strain, cation-adjusted Mueller-Hinton Broth, microdilution; for MIC: Pseudomonas aeruginosa, ATCC27853
Experimental: as §1, §2

E. coli ATCC25922 = assay: Bacterial growth minimal inhibitory concentration, E. coli ATCC25922; conditions: quinolone-sensitive strain, cation-adjusted Mueller-Hinton Broth, microdilution; for MIC: Escherichia coli, ATCC25922
Experimental: as §1, §2

wild-type E. coli A-1261 = assay: Bacterial growth minimal inhibitory concentration of prodrugs, wild-type E. coli A-1261, with or without alkaline phosphatase or esterase; conditions: for MIC for E. coli A-1261 In the absence of alkaline phosphatase or esterase: no alkaline phosphatase or esterase
Experimental: as §1
The compounds of Examples 6 and 21 were tested against wild-type E. coli A-1261 in the absence of alkaline phosphatase or esterase, in the presence of an alkaline phosphatase and in the presence of an esterase. The corresponding antibacterial test results are given in Table 2 hereafter (MICs in mg/L).

Row | Compound | MIC (K. pneumoniae A-651) [µg/mL] | MIC (P. aeruginosa ATCC27853) [µg/mL] | MIC (E. coli ATCC25922) [µg/mL] | further results
1 | CN1CCC(F)(C#CC#Cc2ccc3nc(CC[C@](C)(C(=O)NO)S(C)(=O)=O)sc3c2)C1 (mixture of isomers) [Example 14, (2R)-4-(6-(((3RS)-3-fluoro-1-methylpyrrolidin-3-yl)buta-1,3-diyn-1-yl)benzo[d]thiazol-2-yl)-N-hydroxy-2-methyl-2-(methylsulfonyl)butanamide] | 0.25 | 1 | 0.063 | 
2 | C[C@@](CCc1nc2ccc(C#CC#CC3CN(C4COC4)C3)cc2s1)(C(=O)NO)S(C)(=O)=O [Example 1, (2R)—N-hydroxy-2-methyl-2-(methylsulfonyl)-4-(6-((1-(oxetan-3-yl)azetidin-3-yl)buta-1,3-diyn-1-yl)benzo[d]thiazol-2-yl)butanamide] | 0.25 (≈ 0.513 µM) | 1 (≈ 2.05 µM) | 0.25 (≈ 0.513 µM) | 
3 | C[C@@](CCc1nc2ccc(C#CC#CCOC(=O)N3CCC(O)CC3)cc2s1)(C(=O)NO)S(C)(=O)=O [Example 2, (2R)-5-(2-(4-(hydroxyamino)-3-methyl-3-(methylsulfonyl)-4-oxobutyl)benzo[d]thiazol-6-yl)penta-2,4-diyn-1-yl 4-hydroxypiperidine-1-carboxylate] |  |  |  | MIC for K. Pneumoniae A-651 (K. pneumoniae A-651): 0.5 µg/mL; MIC for P. aeruginosa ATCC27853 (P. aeruginosa ATCC27853): 1 µg/mL; MIC for E. coli ATCC25922 (E. coli ATCC25922): 0.25 µg/mL
4 | C[C@@](CCc1nc2ccc(C#CC#CCOC(=O)N3CC(O)C3)cc2s1)(C(=O)NO)S(C)(=O)=O [Example 3, (2R)-5-(2-(4-(hydroxyamino)-3-methyl-3-(methylsulfonyl)-4-oxobutyl)benzo[d]thiazol-6-yl)penta-2,4-diyn-1-yl 3-hydroxyazetidine-1-carboxylate] |  |  |  | MIC for K. Pneumoniae A-651 (K. pneumoniae A-651): 1 µg/mL; MIC for P. aeruginosa ATCC27853 (P. aeruginosa ATCC27853): 4 µg/mL; MIC for E. coli ATCC25922 (E. coli ATCC25922): 0.5 µg/mL
5 | CN1CC(C#CC#Cc2ccc3nc(CC[C@](C)(C(=O)NO)S(C)(=O)=O)sc3c2)C1 [Example 4, (2R)—N-hydroxy-2-methyl-4-(6-((1-methylazetidin-3-yl)buta-1,3-diyn-1-yl)benzo[d]thiazol-2-yl)-2-(methylsulfonyl)butanamide] | 0.5 (≈ 1.12 µM) | 1 (≈ 2.24 µM) | 0.25 (≈ 0.561 µM) | 
6 | C[C@@](CCc1nc2ccc(C#CC#CC3CN(CCO)C3)cc2s1)(C(=O)NO)S(C)(=O)=O [Example 5, (2R)—N-hydroxy-4-(6-((1-(2-hydroxyethyl)azetidin-3-yl)buta-1,3-diyn-1-yl)benzo[d]thiazol-2-yl)-2-methyl-2-(methylsulfonyl)butanamide] | 0.5 (≈ 1.05 µM) | 1 (≈ 2.1 µM) | 1 (≈ 2.1 µM) | 
7 | C[C@@](CCc1nc2ccc(C#CC#CC3CN(CCOP(=O)(O)O)C3)cc2s1)(C(=O)NO)S(C)(=O)=O [Example 6, (R)-2-(3-((2-(4-(hydroxyamino)-3-methyl-3-(methylsulfonyl)-4-oxobutyl)benzo[d]thiazol-6-yl)buta-1,3-diyn-1-yl)azetidin-1-yl)ethyl dihydrogen phosphate] |  |  |  | MIC for E. coli A-1261 In the presence of an alkaline phosphatase (2 i.U./mL) (wild-type E. coli A-1261): 0.5 µg/mL; MIC for E. coli A-1261 In the presence of an esterase (10 i.U./mL) (wild-type E. coli A-1261): >16 µg/mL; MIC for E. coli A-1261 In the absence of alkaline phosphatase or esterase (wild-type E. coli A-1261): >16 µg/mL
8 | C[C@@](CCc1nc2ccc(C#CC#C[C@@H]3CC[C@H]3CO)cc2s1)(C(=O)NO)S(C)(=O)=O [Example 7, (2R)—N-hydroxy-4-(6-(((1R,2R)-2-(hydroxymethyl)cyclobutyl)buta-1,3-diyn-1-yl)benzo[d]thiazol-2-yl)-2-methyl-2-(methylsulfonyl)butanamide] | 0.25 (≈ 0.543 µM) | 1 (≈ 2.17 µM) | 0.125 (≈ 0.271 µM) | 
9 | CN1CC[C@H]1C#CC#Cc1ccc2nc(CC[C@](C)(C(=O)NO)S(C)(=O)=O)sc2c1 [Example 8, (2R)—N-hydroxy-2-methyl-4-(6-(((2S)-1-methylazetidin-2-yl)buta-1,3-diyn-1-yl)benzo[d]thiazol-2-yl)-2-(methylsulfonyl)butanamide] | 1 (≈ 2.24 µM) | 2 (≈ 4.49 µM) | 0.25 (≈ 0.561 µM) | 
10 | C[C@@](CCc1nc2ccc(C#CC#CC3CN(CC4COC4)C3)cc2s1)(C(=O)NO)S(C)(=O)=O [Example 9, (2R)—N-hydroxy-2-methyl-2-(methylsulfonyl)-4-(6-((1-(oxetan-3-ylmethyl)azetidin-3-yl)buta-1,3-diyn-1-yl)benzo[d]thiazol-2-yl)butanamide] | 0.25 (≈ 0.498 µM) | 1 (≈ 1.99 µM) | 0.125 (≈ 0.249 µM) | 
11 | C[C@@](CCc1nc2ccc(C#CC#CC3CN(CCCO)C3)cc2s1)(C(=O)NO)S(C)(=O)=O [Example 10, (2R)—N-hydroxy-4-(6-((1-(3-hydroxypropyl)azetidin-3-yl)buta-1,3-diyn-1-yl)benzo[d]thiazol-2-yl)-2-methyl-2-(methylsulfonyl)butanamide] | 0.5 (≈ 1.02 µM) | 1 (≈ 2.04 µM) | 0.25 (≈ 0.511 µM) | 
12 | C[C@@](CCc1nc2ccc(C#CC#CC3CN(C4CC4)C3)cc2s1)(C(=O)NO)S(C)(=O)=O [Example 11, (2R)-4-(6-((1-cyclopropylazetidin-3-yl)buta-1,3-diyn-1-yl)benzo[d]thiazol-2-yl)-N-hydroxy-2-methyl-2-(methylsulfonyl)butanamide] | 0.125 (≈ 0.265 µM) | 2 (≈ 4.24 µM) | 0.063 (≈ 0.134 µM) | 
13 | C[C@@](CCc1nc2ccc(C#CC#CC3CN(C4CC(O)C4)C3)cc2s1)(C(=O)NO)S(C)(=O)=O (stereo partly drawn) [Example 12, (2R)—N-hydroxy-4-(6-((1-(3-hydroxycyclobutyl)azetidin-3-yl)buta-1,3-diyn-1-yl)benzo[d]thiazol-2-yl)-2-methyl-2-(methylsulfonyl)butanamide] | 0.25 (≈ 0.498 µM) | 1 (≈ 1.99 µM) | 0.125 (≈ 0.249 µM) | 
14 | C[C@@](CCc1nc2ccc(C#CC#CC3CN(CCF)C3)cc2s1)(C(=O)NO)S(C)(=O)=O [Example 13, (2R)-4-(6-((1-(2-fluoroethyl)azetidin-3-yl)buta-1,3-diyn-1-yl)benzo[d]thiazol-2-yl)-N-hydroxy-2-methyl-2-(methylsulfonyl)butanamide] | 0.25 (≈ 0.523 µM) | 1 (≈ 2.09 µM) | 0.125 (≈ 0.262 µM) | 
15 | CN1CCC(F)(C#CC#Cc2ccc3nc(CC[C@](C)(C(=O)NO)S(C)(=O)=O)sc3c2)CC1 [Example 15, (2R)-4-(6-((4-fluoro-1-methylpiperidin-4-yl)buta-1,3-diyn-1-yl)benzo[d]thiazol-2-yl)-N-hydroxy-2-methyl-2-(methylsulfonyl)butanamide] | 0.5 (≈ 1.02 µM) | 1 (≈ 2.03 µM) | 0.25 (≈ 0.509 µM) | 
16 | C[C@@H]1[C@@H](C#CC#Cc2ccc3nc(CC[C@](C)(C(=O)NO)S(C)(=O)=O)sc3c2)CN1C [Example 16, (2R)-4-(6-(((2R,3S)-1,2-dimethylazetidin-3-yl)buta-1,3-diyn-1-yl)benzo[d]thiazol-2-yl)-N-hydroxy-2-methyl-2-(methylsulfonyl)butanamide] | 0.5 (≈ 1.09 µM) | 0.5 (≈ 1.09 µM) | 0.125 (≈ 0.272 µM) | 
17 | CN1C[C@@H](C#CC#Cc2ccc3nc(CC[C@](C)(C(=O)NO)S(C)(=O)=O)sc3c2)[C@@H]1CO [Example 17, (2R)—N-hydroxy-4-(6-(((2R,3R)-2-(hydroxymethyl)-1-methylazetidin-3-yl)buta-1,3-diyn-1-yl)benzo[d]thiazol-2-yl)-2-methyl-2-(methylsulfonyl)butanamide] | 1 (≈ 2.1 µM) | 1 (≈ 2.1 µM) | 0.5 (≈ 1.05 µM) | 
18 | CNC1(C#CC#Cc2ccc3nc(CC[C@](C)(C(=O)NO)S(C)(=O)=O)sc3c2)CC1 [Example 18, (2R)—N-hydroxy-2-methyl-4-(6-((1-(methylamino)cyclopropyl)buta-1,3-diyn-1-yl)benzo[d]thiazol-2-yl)-2-(methylsulfonyl)butanamide] | 0.25 (≈ 0.561 µM) | 1 (≈ 2.24 µM) | 0.125 (≈ 0.281 µM) | 
19 | CN1C[C@@H](C#CC#Cc2ccc3nc(CC[C@](C)(C(=O)NO)S(C)(=O)=O)sc3c2)[C@@H]1CO [Example 19, (2R)—N-hydroxy-4-(6-(((2R,3R)-2-(hydroxymethyl)-1-methylazetidin-3-yl)buta-1,3-diyn-1-yl)benzo[d]thiazol-2-yl)-2-methyl-2-(methylsulfonyl)butanamide] |  |  |  | MIC for K. Pneumoniae A-651 (K. pneumoniae A-651): 2 µg/mL; MIC for P. aeruginosa ATCC27853 (P. aeruginosa ATCC27853): 1 µg/mL; MIC for E. coli ATCC25922 (E. coli ATCC25922): 0.5 µg/mL
20 | CN1C[C@@H](C#CC#Cc2ccc3nc(CC[C@](C)(C(=O)NO)S(C)(=O)=O)sc3c2)C[C@@H]1CO [Example 20, (2R)—N-hydroxy-4-(6-(((3R,5R)-5-(hydroxymethyl)-1-methylpyrrolidin-3-yl)buta-1,3-diyn-1-yl)benzo[d]thiazol-2-yl)-2-methyl-2-(methylsulfonyl)butanamide] | 1 (≈ 2.04 µM) | 1 (≈ 2.04 µM) | 0.5 (≈ 1.02 µM) | 
21 | (2R)-2-(3-((4-(5-((1-(3-hydroxypropyl)azetidin-3-yl)buta-1,3-diyn-1-yl)benzo[d]thiazol-2-yl)-2-methyl-2-(methylsulfonyl)butanamido)oxy)-3-oxopropyl)phenyl dihydrogen phosphate [Example 21] |  |  |  | MIC for E. coli A-1261 In the presence of an alkaline phosphatase (2 i.U./mL) (wild-type E. coli A-1261): 0.5 µg/mL; MIC for E. coli A-1261 In the presence of an esterase (10 i.U./mL) (wild-type E. coli A-1261): 8 µg/mL; MIC for E. coli A-1261 In the absence of alkaline phosphatase or esterase (wild-type E. coli A-1261): 0.5 µg/mL
